Assay results from patent publication US11753418B2, “Compounds for the modulation of Myc activity” (Syros Pharmaceuticals, Inc., priority 2015, dated 2023).
Where a name gives a salt, the structure may show the parent alone.

These compounds were tested against T1, c-Myc/Max/Ebox DNA (Homo sapiens, UniProt P01106) (assay: c-Myc/Max/Ebox DNA AlphaScreen Assay). Settings: free c-Myc 20 nM, his6-Max 5 nM, biotinylated Ebox oligo 10 nM, 2 hour incubation.
T1 construct: his6 (cleaved yes)
Format: binding
Experimental: Compounds of the invention were assayed for c-Myc/Max/EBox activity as described in the following protocol. Human his6-c-Myc and his6-Max were used with biotinylated DNA containing a single Ebox sequence (biotin[…]) purchased from MWG Operon. Free c-Myc was generated from his6-c-Myc through thrombin cleavage of the his6 tag. For 384-well plate assays, 10 μL of a 2× solution of free c-Myc (20 nM final), Ni^2+ coated Acceptor Beads (25 μg/ml final), and biotinylated Ebox oligo (10 nM final) were added to 384-well plates with a Biotek EL406 liquid handler. 50 nL of compounds from stock plates were added by pin transfer using a Janus Workstation (PerkinElmer), allowing the compounds to interact with c-Myc prior to c-Myc binding with Max. In the current assay, DMSO was not allowed to exceed 2% v/v of the assay. 10 μl of 2× master mix containing streptavidin-coated donor beads (25 μg/ml final) and his6-Max (5 nM) were added. AlphaScreen measurements were performed on an Envision plate reader (PerkinElmer) utilizing the manufacturer's protocol.
Both master mixes were made in room temperature assay buffer (50 mM HEPES, 150 mM NaCl, 0.2% w/v BSA, 0.02% w/v Tween20, 40 μg/ml glycogen, 500 μM DTT, pH 8.0, wherein both DTT and glycogen were added fresh). Alpha beads were added to respective master solutions. All subsequent steps were performed in low light conditions. Solution 1: 2× solution of components with final concentrations of c-Myc Ni-coated Acceptor Beads (25 μg/ml), and biotinylated Ebox oligo (10 nM). Solution 2: 2× solution of streptavidin-coated donor beads (25 μg/ml final) and his6-Max […]. Solution 1 was added to 384-well plate (AlphaPlate-384, PerkinElmer) with Biotek EL406 liquid handler and the plates were centrifuged very briefly. 50 nL of compounds from stock plates were added by pin transfer using a Janus Workstation. Solution 2 (10 μL) was added with the liquid handler. Plates were sealed with foil to block light exposure and prevent evaporation. Plates were very briefly centrifuged followed by 2 hour incubation. AlphaScreen measurements were performed on an Envision 2104 utilizing the manufacturer's protocol. Excitation was at 680 nm for donor bead release of singlet oxygen and emission was read with a bandpass filter from 520-620 nm. Glycogen: Roche Diagnostics #10901393001. Plate 1536: Perkin Elmer, 6004350. Plate 384: Perkin Elmer, 6005350. Nickel-His Alpha Beads: 6760619R. The data from this assay are summarized in Table 3 below (Myc/Max/DNA Activity).

T1 sequence (P01106 whole entry): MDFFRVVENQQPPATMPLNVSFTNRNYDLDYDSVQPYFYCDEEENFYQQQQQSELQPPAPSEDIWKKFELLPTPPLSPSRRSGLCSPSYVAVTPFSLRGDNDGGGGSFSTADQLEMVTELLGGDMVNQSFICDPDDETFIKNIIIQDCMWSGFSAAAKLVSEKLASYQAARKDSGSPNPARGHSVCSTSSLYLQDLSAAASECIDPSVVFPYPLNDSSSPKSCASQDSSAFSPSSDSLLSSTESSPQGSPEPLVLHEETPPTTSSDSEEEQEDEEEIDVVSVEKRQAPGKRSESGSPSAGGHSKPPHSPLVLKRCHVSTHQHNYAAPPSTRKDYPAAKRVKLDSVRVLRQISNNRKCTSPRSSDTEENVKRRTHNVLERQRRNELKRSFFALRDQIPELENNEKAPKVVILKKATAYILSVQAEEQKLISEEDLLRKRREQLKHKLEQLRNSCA

CC(=O)Nc1sc2c(c1-c1nc3cnccc3s1)CC(C)NC2C (mixture of isomers) [Compound 109, N-(5,7-dimethyl-3-(thiazolo[4,5-c]pyridin-2-yl)-4,5,6,7-tetrahydrothieno[2,3-c]pyridin-2-yl)acetamide] and CCN1[C@@H](C)Cc2c(sc(NC(C)=O)c2-c2nc3cnccc3s2)[C@@H]1C [Compound 120, N-((5S,7S)-6-ethyl-5,7-dimethyl-3-(thiazolo[4,5-c]pyridin-2-yl)-4,5,6,7-tetrahydrothieno[2,3-c]pyridin-2-yl)acetamide] fall in the same range of IC50: 500 to 5000 nM for the first, 500 to 5000 nM for the second.

CC(=O)Nc1sc2c(c1-c1nc3cnccc3s1)CNC2 [Compound 102, N-(3-(thiazolo[4,5-c]pyridin-2-yl)-5,6-dihydro-4H-thieno[2,3-c]pyrrol-2-yl)acetamide] and CC(=O)Nc1sc2c(c1-c1nc3cnccc3s1)C(C)CNC2 (stereo not shown) [Compound 104, N-(4-methyl-3-(thiazolo[4,5-c]pyridin-2-yl)-4,5,6,7-tetrahydrothieno[2,3-c]pyridin-2-yl)acetamide] fall in the same range of IC50: 500 to 5000 nM for the first, 500 to 5000 nM for the second.

First: CC(=O)Nc1sc2c(c1-c1nc3cnccc3s1)CCN(CCN1CCOCC1)C2 [Compound 112]
Second: CC(=O)Nc1sc2c(c1-c1nc3cnccc3s1)CCN(CCN)C2 [Compound 121, N-(6-(2-aminoethyl)-3-(thiazolo[4,5-c]pyridin-2-yl)-4,5,6,7-tetrahydrothieno[2,3-c]pyridin-2-yl)acetamide hydrochloride]
The IC50 of the first is higher: 5000 to 25000 nM for the first, 500 to 5000 nM for the second. The second is the more potent here.

Compared with CC(=O)Nc1sc2c(c1-c1nc3cnccc3s1)CCN(C(C)C)C2 [Compound 115, N-(6-isopropyl-3-(thiazolo[4,5-c]pyridin-2-yl)-4,5,6,7-tetrahydrothieno[2,3-c]pyridin-2-yl)acetamide], CC(C)C[C@H](CO)NCCC(=O)Nc1sc2c(c1-c1nc3cnccc3s1)CCNC2 [Compound 138] is lower in IC50: 500 to 5000 nM for the first, less than 500 nM for the second. The second is the more potent here.

O=C(CCN1CC2(CNC2)C1)Nc1sc2c(c1-c1nc3cnccc3s1)CCNC2 [Compound 123] and O=C(CCN1CC2(CCOC2)C1)Nc1sc2c(c1-c1nc3cnccc3s1)CCNC2 [Compound 125] cannot be ordered by IC50: less than 500 nM for the first, less than 500 nM for the second.

O=C(CCN1CCC[C@@]2(CCCN2)C1)Nc1sc2c(c1-c1nc3cnccc3s1)CCNC2 [Compound 124] and O=C(CCN1CCC2(CC2)C1)Nc1sc2c(c1-c1nc3cnccc3s1)CCNC2 [Compound 127] cannot be ordered by IC50: less than 500 nM for the first, less than 500 nM for the second.

O=C(CCN1CCC2(CCOC2)C1)Nc1sc2c(c1-c1nc3cnccc3s1)CCNC2 (stereo not shown) [Compound 126] and O=C(CCN1CCCOCC1)Nc1sc2c(c1-c1nc3cnccc3s1)CCNC2 [Compound 170] cannot be ordered by IC50: less than 500 nM for the first, less than 500 nM for the second.

Compared with O=C(CCN1CC2(C1)CS(=O)(=O)C2)Nc1sc2c(c1-c1nc3cnccc3s1)CCNC2 [Compound 128], O=C(CCN1CC2CCC2C1)Nc1sc2c(c1-c1nc3cnccc3s1)CCNC2 (stereo not shown) [Compound 130] is lower in IC50: 500 to 5000 nM for the first, less than 500 nM for the second.

O=C(CCN1C[C@@H]2CC(F)(F)C[C@@H]2C1)Nc1sc2c(c1-c1nc3cnccc3s1)CCNC2 [Compound 129] and O=C(CCN1CC2COCC2C1)Nc1sc2c(c1-c1nc3cnccc3s1)CCNC2 (stereo not shown) [Compound 131] cannot be ordered by IC50: less than 500 nM for the first, less than 500 nM for the second.

CC1CC(NCCC(=O)Nc2sc3c(c2-c2nc4cnccc4s2)CCNC3)C1 (stereo not shown) [Compound 133] and O=C(CCNC1CC(O)C1)Nc1sc2c(c1-c1nc3cnccc3s1)CCNC2 (stereo not shown) [Compound 167] cannot be ordered by IC50: less than 500 nM for the first, less than 500 nM for the second.

O=C(CCNCC1CCC1)Nc1sc2c(c1-c1nc3cnccc3s1)CCNC2 [Compound 135] and O=C(CCNCC1CCCC1)Nc1sc2c(c1-c1nc3cnccc3s1)CCNC2 [Compound 175] cannot be ordered by IC50: less than 500 nM for the first, less than 500 nM for the second.

Cc1cc(C)n(CCNCCC(=O)Nc2sc3c(c2-c2nc4cnccc4s2)CCNC3)n1 [Compound 136] and Cc1coc(CNCCC(=O)Nc2sc3c(c2-c2nc4cnccc4s2)CCNC3)n1 [Compound 140] fall in the same range of IC50: 500 to 5000 nM for the first, 500 to 5000 nM for the second.

C[C@H](NCCC(=O)Nc1sc2c(c1-c1nc3cnccc3s1)CCNC2)C1CC1 [Compound 137] and CC1CC1NCCC(=O)Nc1sc2c(c1-c1nc3cnccc3s1)CCNC2 (stereo not shown) [Compound 145] cannot be ordered by IC50: less than 500 nM for the first, less than 500 nM for the second.

Compared with O=C(CCNC(CO)c1ccc(F)cc1)Nc1sc2c(c1-c1nc3cnccc3s1)CCNC2 (stereo not shown) [Compound 139], Cc1ccc(CNCCC(=O)Nc2sc3c(c2-c2nc4cnccc4s2)CCNC3)s1 [Compound 185] is lower in IC50: 500 to 5000 nM for the first, less than 500 nM for the second. The second is the more potent here.

O=C(CCNCc1ccno1)Nc1sc2c(c1-c1nc3cnccc3s1)CCNC2 [Compound 141] and O=C(CCNCc1ccn[nH]1)Nc1sc2c(c1-c1nc3cnccc3s1)CCNC2 [Compound 166] cannot be ordered by IC50: less than 500 nM for the first, less than 500 nM for the second.

First: O=C(CCN1CCC(c2ccc(Cl)cc2)CC1)Nc1sc2c(c1-c1nc3cnccc3s1)CCNC2 [Compound 143]
Second: O=C(CCN1CCC(OC2CCC2)CC1)Nc1sc2c(c1-c1nc3cnccc3s1)CCNC2 [Compound 149]
The IC50 of the first is higher: 500 to 5000 nM for the first, less than 500 nM for the second.

CC1CN(CCC(=O)Nc2sc3c(c2-c2nc4cnccc4s2)CCNC3)CC(=O)N1 (stereo not shown) [Compound 144] and CN1CCN(CCC(=O)Nc2sc3c(c2-c2nc4cnccc4s2)CCNC3)CC1=O [Compound 162] fall in the same range of IC50: 500 to 5000 nM for the first, 500 to 5000 nM for the second.

O=C(CCNC1CNCC1O)Nc1sc2c(c1-c1nc3cnccc3s1)CCNC2 (stereo not shown) [Compound 146] and O=C(CCN[C@H]1COC[C@@H]1O)Nc1sc2c(c1-c1nc3cnccc3s1)CCNC2 [Compound 148] cannot be ordered by IC50: less than 500 nM for the first, less than 500 nM for the second.

O=C(CCNC1CCOC1)Nc1sc2c(c1-c1nc3cnccc3s1)CCNC2 (stereo not shown) [Compound 147] and O=C(CCNC1CCNCC1)Nc1sc2c(c1-c1nc3cnccc3s1)CCNC2 [Compound 165] cannot be ordered by IC50: less than 500 nM for the first, less than 500 nM for the second.

CN(C)[C@H]1CCN(CCC(=O)Nc2sc3c(c2-c2nc4cnccc4s2)CCNC3)C1 [Compound 150] and CN(C)C1CN(CCC(=O)Nc2sc3c(c2-c2nc4cnccc4s2)CCNC3)C1 [Compound 161] cannot be ordered by IC50: less than 500 nM for the first, less than 500 nM for the second.

COC1(C)CCN(CCC(=O)Nc2sc3c(c2-c2nc4cnccc4s2)CCNC3)CC1 [Compound 151] and CC1(C)CCCN1CCC(=O)Nc1sc2c(c1-c1nc3cnccc3s1)CCNC2 [Compound 164] cannot be ordered by IC50: less than 500 nM for the first, less than 500 nM for the second.

COCC1CCCCN1CCC(=O)Nc1sc2c(c1-c1nc3cnccc3s1)CCNC2 (stereo not shown) [Compound 152] and COCC1CCCN1CCC(=O)Nc1sc2c(c1-c1nc3cnccc3s1)CCNC2 (stereo not shown) [Compound 169] cannot be ordered by IC50: less than 500 nM for the first, less than 500 nM for the second.

First: O=C(CCN1C[C@H]2CN[C@H]2C1)Nc1sc2c(c1-c1nc3cnccc3s1)CCNC2 [Compound 154]
Second: O=C(CCN1CC2CCC(C1)O2)Nc1sc2c(c1-c1nc3cnccc3s1)CCNC2 [Compound 163]
The IC50 of the first is lower: less than 500 nM for the first, 500 to 5000 nM for the second.

O=C(CCN1CC[C@@H]2NCC[C@@H]21)Nc1sc2c(c1-c1nc3cnccc3s1)CCNC2 [Compound 155] and O=C(CCN[C@@H]1C2CCC1NC2)Nc1sc2c(c1-c1nc3cnccc3s1)CCNC2 (stereo partly shown) [Compound 173] cannot be ordered by IC50: less than 500 nM for the first, less than 500 nM for the second.

Cc1cc(CC(C)NCCC(=O)Nc2sc3c(c2-c2nc4cnccc4s2)CCNC3)on1 (stereo not shown) [Compound 156] and Cc1nc(CNCCC(=O)Nc2sc3c(c2-c2nc4cnccc4s2)CCNC3)no1 [Compound 180] cannot be ordered by IC50: less than 500 nM for the first, less than 500 nM for the second.

CN(CCC(=O)Nc1sc2c(c1-c1nc3cnccc3s1)CCNC2)Cc1cnc(Cl)s1 [Compound 157] and Cc1nc(CN(C)CCC(=O)Nc2sc3c(c2-c2nc4cnccc4s2)CCNC3)no1 [Compound 182] fall in the same range of IC50: 500 to 5000 nM for the first, 500 to 5000 nM for the second.

O=C(CCNCCN1CCCCC1=O)Nc1sc2c(c1-c1nc3cnccc3s1)CCNC2 [Compound 158] and COC(=O)CCCNCCC(=O)Nc1sc2c(c1-c1nc3cnccc3s1)CCNC2 [Compound 168] cannot be ordered by IC50: less than 500 nM for the first, less than 500 nM for the second.

Compared with Cc1nc(C)c(CNCCC(=O)Nc2sc3c(c2-c2nc4cnccc4s2)CCNC3)s1 [Compound 159], Cc1ccsc1CNCCC(=O)Nc1sc2c(c1-c1nc3cnccc3s1)CCNC2 [Compound 171] is lower in IC50: 500 to 5000 nM for the first, less than 500 nM for the second. The second is the more potent here.

O=C(CCNCc1cscn1)Nc1sc2c(c1-c1nc3cnccc3s1)CCNC2 [Compound 160] and O=C(CCNCc1ncon1)Nc1sc2c(c1-c1nc3cnccc3s1)CCNC2 [Compound 181] cannot be ordered by IC50: less than 500 nM for the first, less than 500 nM for the second.

First: O=C(CCNCC12CC(CN1)C2)Nc1sc2c(c1-c1nc3cnccc3s1)CCNC2 [Compound 174]
Second: CC(C)c1nc(CNCCC(=O)Nc2sc3c(c2-c2nc4cnccc4s2)CCNC3)no1 [Compound 179]
The IC50 of the first is lower: less than 500 nM for the first, 500 to 5000 nM for the second.

O=C(CCN1CCc2[nH]ncc2C1)Nc1sc2c(c1-c1nc3cnccc3s1)CCNC2 [Compound 178] gave an IC50 of less than 500 nM.
